Experimental data from patent US10596172B2 (Celgene CAR LLC, priority 2008, dated 2020).
Where two headings read alike, the source gives them in different places.

What was measured:
[1] = tested on: B cell lymphoma cell lines; experiment: B cell lymphoma proliferation assay; assay type: cell-based
BTK [2] = biological target: T1, BTK (Homo sapiens (Human), UniProt Q06187); experiment: BTK occupancy from in vitro samples by ELISA (Ramos cells); assay type: cell-based
Method: In order to determine the amount of free BTK in cell or tissue lysates, an ELISA protocol was employed that utilizes a biotinylated probe compound that binds only to free, unoccupied BTK. The conjugated biotin is captured on a streptavidin-coated ELISA plate and detected with a mouse anti-BTK antibody (Becton Dickinson, Franklin Lakes, N.J., USA) and a secondary goat anti-mouse HRP antibody (Zymed, South San Francisco, Calif., USA).
(§1) All samples were prepared with equal concentrations of Biorad lysis buffer (Hercules, Calif., USA), 0.5% bovine serum albumin in PBS with 0.05% Tween-20 to give a final concentration of 1 μM I-215. Samples were incubated in a mixing plate for 1 hr at room temperature while shaking to allow probe compound I-215 to bind to free BTK. After incubation with I-215, samples were added to a washed, streptavidin-coated ELISA plate (Pierce, Rockford, Ill., USA) and incubated for 1 hr at room temperature while shaking. The plate was then washed with PBS containing 0.05% Tween-20 using an automatic plate washer. Anti-BTK antibody was prepared at 1:1000 dilution in 0.5% BSA in PBS (0.05% Tween-20) and added to the ELISA plate. The plate was incubated for 1 hr at room temperature while shaking. The plate was washed as described above and the secondary HRP antibody was prepared at 1:5000 dilution in 0.5% BSA in PBS (0.05% Tween-20). The plate was incubated and washed as described above. TMB was added to the plate, and OD650 was monitored until reaching 1 OD unit. The reaction was then stopped with addition of H2SO4. The plate was analyzed using Gen 5 software, and a 4 Parameter Logistic curve was employed to quantitate samples. Recombinant BTK (Invitrogen, Carlsbad, Calif., USA) was used for the standard curve.
A concentration designated as “A” is greater than 1 nM; a concentration designated as “B” is greater than 10 nM; and a concentration designated as “C” is greater than 50 nM.

JAK3 = JAK3 (Homo sapiens (Human), UniProt P52333); experiment: Omnia assay for potency assessment against the active form of JAK3; assay type: biochemical; details: read-out: JAK3 Inhibition
BTK [3] = biological target: BTK (Canis lupus familiaris, UniProt A0A8I3P3Z9); experiment: Dog primary B cell covalent probe occupancy in vitro; assay type: cell-based; details: canine PBMCs, one hour at 37° C.
Method: as §1, with “The reaction was then stopped with addition of H2SO4.” left out, “Recombinant BTK (Invitrogen, Carlsbad, Calif., USA) was used for the standard curve.” left out
Canine whole blood (30 mL) was diluted to 50 mL total with 1×PBS and layered on top of Histopaque-1077 (Sigma Aldrich). […] The supernatant was analyzed as described in Example 283 using I-215. […]

BTK [4] = biological target: T1, BTK; experiment: Mass spectrometry for BTK (covalent modification of intact protein); assay type: binding; details: 1 hr, 10x fold excess of compound
Method: Intact BTK was incubated for 1 hr at a 10× fold excess of I-7 to protein. Aliquots (2 μl) of the samples were diluted with 10 μl of 0.1% TFA prior to micro C4 ZipTipping directly onto the MALDI target using Sinapinic acid as the desorption matrix (10 mg/ml in 0.1% TFA:Acetonitrile 20:80).

Human naïve B cells = experiment: Human primary B cell proliferation assay; assay type: cell-based; details: 5 μg/ml α-IgM 72 hours, 3H-thymidine incorporation
Method: Human naïve B cells were purified from 100 mL whole blood using a MACS purification kit designed to isolate CD19+, IgD+ cells by negative selection. Purified naïve B cells were resuspended in RPMI complete and stimulated with 5 μg/ml α-IgM for 72 hours. ^3H-Thymidine was included in the culture media for the final 16 h, cells were harvested and ^3H incorporation measured. Inhibition of B cell proliferation correlates with inhibition of BTK substrate phosphorylation after α-IgM stimulation.

BTK [5] = biological target: T1, BTK; experiment: Human primary B cell covalent probe occupancy in vitro; assay type: cell-based; details: human primary B cells, 1 h at 37° C.
Method: as §1, with “The plate was incubated and washed as described above.” left out, “The reaction was then stopped with addition of H2SO4.” left out, “Recombinant BTK (Invitrogen, Carlsbad, Calif., USA) was used for the standard curve.” left out
Human primary B cells were isolated as described in Example 256, then resuspended in RPMI media (10% serum). The compound to be analyzed was added at a 1:1000 dilution to media. […] The supernatant was analyzed as described in Example 283 using I-215.

BTK [6] = biological target: BTK (Rattus norvegicus, UniProt Q5S255); experiment: BTK occupancy from in vivo samples by ELISA; details: po, rats dosed orally 30 mg/kg
Method: as §1
Rats were dosed orally with 30 mg/kg of compound and spleens were harvested either 2 or 24 hours after compound treatment. Rat spleens were disrupted between two microscope slides coated with frosted glass to recover single cell suspensions. Red blood cells were lysed by incubating with RBC lysis buffer (Boston BioProducts) for 2 minutes at room temperature, the cells were then resuspended in RPMI complete media and pelleted by centrifugation. Rat B cells were isolated by positive selection with B220+ antibody-magnetic bead conjugates, purified by MACS column and lysed in Bio-Rad lysis buffer at a concentration of 10 million cells/100 μl. Lysates were analyzed employing the biotinylated probe compound I-215 in an ELISA protocol as described in detail in Example 278.

[7] = Homo sapiens, DOHH-2, DOHH2 B cell lymphoma cell line, read-out: EC50 (μM) DOHH2
[8] = Homo sapiens, WSUDLCL2, WSU-DLCL2 B cell lymphoma cell line, read-out: EC50 (μM) WSU-DLCL2
[9] = spleen B cells harvested 2 hours after treatment, read-out: % BTK Occupancy 2 h
[10] = spleen B cells harvested 24 hours after treatment, read-out: % BTK Occupancy 24 h

Chain of BTK (Rattus norvegicus, UniProt Q5S255) (Q5S255 1-660): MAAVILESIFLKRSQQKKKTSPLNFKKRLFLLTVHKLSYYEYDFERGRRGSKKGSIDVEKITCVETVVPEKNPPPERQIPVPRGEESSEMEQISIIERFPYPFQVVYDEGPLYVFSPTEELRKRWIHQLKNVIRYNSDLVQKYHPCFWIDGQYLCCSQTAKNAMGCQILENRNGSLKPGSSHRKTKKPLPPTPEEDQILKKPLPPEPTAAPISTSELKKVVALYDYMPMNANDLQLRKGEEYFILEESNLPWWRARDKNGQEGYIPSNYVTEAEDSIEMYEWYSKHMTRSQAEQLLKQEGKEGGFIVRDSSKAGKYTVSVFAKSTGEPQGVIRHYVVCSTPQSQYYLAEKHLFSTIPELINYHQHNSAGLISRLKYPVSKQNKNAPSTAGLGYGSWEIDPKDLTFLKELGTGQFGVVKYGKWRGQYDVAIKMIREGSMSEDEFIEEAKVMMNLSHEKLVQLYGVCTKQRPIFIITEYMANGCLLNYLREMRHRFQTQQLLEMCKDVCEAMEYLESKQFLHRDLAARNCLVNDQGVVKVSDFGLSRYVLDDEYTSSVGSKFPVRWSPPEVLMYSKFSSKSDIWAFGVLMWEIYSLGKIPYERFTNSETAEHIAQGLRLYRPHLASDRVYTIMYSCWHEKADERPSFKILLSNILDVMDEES
T1 sequence (Q06187 whole entry): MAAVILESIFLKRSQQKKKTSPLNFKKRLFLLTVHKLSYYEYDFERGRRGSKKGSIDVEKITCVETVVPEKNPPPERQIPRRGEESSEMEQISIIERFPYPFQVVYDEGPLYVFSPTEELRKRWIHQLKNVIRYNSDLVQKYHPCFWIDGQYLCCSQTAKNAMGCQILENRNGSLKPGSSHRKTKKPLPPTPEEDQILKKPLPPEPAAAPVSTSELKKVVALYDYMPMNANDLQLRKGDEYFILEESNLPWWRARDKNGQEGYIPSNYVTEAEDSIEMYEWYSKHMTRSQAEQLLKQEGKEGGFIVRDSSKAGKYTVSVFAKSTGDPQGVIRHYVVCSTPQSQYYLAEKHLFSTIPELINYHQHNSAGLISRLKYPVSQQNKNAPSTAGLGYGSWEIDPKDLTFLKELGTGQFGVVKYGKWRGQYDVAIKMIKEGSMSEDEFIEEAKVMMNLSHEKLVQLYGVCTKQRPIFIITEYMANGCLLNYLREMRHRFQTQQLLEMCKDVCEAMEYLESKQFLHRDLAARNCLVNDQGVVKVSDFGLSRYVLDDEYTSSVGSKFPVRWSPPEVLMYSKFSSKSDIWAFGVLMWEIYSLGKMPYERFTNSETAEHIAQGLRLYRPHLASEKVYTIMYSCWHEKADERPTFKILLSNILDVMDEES
Chain of JAK3 (P52333 whole entry): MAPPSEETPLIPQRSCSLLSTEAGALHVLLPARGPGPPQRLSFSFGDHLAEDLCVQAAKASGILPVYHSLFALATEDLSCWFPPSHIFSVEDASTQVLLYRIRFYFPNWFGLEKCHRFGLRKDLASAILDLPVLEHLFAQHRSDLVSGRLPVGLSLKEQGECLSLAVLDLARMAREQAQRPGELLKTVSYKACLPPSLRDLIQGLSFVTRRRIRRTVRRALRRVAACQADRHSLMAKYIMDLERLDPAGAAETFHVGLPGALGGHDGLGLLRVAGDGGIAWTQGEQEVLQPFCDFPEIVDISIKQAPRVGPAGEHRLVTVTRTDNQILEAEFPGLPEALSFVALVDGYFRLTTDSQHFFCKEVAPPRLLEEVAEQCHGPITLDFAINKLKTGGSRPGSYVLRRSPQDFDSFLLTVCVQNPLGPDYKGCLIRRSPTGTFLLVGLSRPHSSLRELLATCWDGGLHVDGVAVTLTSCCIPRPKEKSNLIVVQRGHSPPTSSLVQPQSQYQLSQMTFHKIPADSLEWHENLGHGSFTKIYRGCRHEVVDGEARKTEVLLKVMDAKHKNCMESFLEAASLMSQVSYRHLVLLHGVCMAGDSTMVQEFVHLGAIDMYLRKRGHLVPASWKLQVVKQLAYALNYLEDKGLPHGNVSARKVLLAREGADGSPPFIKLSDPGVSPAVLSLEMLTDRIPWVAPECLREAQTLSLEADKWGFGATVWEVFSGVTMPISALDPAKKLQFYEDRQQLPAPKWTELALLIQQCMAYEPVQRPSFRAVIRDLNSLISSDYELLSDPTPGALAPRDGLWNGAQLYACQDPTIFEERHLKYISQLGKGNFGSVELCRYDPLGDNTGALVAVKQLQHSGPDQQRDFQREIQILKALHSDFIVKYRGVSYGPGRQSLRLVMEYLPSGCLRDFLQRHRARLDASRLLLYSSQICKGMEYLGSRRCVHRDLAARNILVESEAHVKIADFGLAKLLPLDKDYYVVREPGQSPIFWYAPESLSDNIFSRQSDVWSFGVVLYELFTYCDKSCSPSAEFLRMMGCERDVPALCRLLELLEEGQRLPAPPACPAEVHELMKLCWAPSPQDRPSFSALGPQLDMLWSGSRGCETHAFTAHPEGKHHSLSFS
Chain of BTK (Canis lupus familiaris, UniProt A0A8I3P3Z9) (A0A8I3P3Z9 1-664): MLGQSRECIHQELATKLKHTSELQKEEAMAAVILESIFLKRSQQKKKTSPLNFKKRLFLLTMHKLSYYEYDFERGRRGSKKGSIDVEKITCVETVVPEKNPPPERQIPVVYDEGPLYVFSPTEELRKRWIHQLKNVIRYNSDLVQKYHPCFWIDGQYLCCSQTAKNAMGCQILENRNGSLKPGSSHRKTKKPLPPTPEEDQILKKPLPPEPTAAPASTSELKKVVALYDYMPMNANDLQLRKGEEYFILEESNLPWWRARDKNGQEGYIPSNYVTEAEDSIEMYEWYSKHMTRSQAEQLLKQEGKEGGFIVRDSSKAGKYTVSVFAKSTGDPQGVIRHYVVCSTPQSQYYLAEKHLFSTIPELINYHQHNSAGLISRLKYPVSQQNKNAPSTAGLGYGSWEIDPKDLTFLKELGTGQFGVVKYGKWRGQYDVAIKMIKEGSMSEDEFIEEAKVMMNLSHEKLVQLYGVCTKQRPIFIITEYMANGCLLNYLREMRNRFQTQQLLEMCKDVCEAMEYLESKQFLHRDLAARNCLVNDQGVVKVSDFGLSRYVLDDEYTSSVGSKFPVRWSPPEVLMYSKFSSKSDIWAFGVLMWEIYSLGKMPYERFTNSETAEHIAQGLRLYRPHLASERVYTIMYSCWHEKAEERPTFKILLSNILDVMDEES

How did the EC50 [1, 7] turn out when C=CC(=O)Nc1cccc(Nc2nc(Nc3ccc(OCCOC)c(F)c3)ncc2F)c1 [Compound I-96, N-(3-(2-(3-fluoro-4-(2-methoxyethoxy)phenylamino)-5-fluoropyrimidin-4-ylamino)phenyl)acrylamide] was run?
The EC50 was 0.1 to 1 µM.

What about the EC50 [1, 8] of the same molecule?
Its EC50 is 1 to 10 µM.

What about the “>50% occupancy (concentration at which >50% of BTK is occupied)” value (BTK [2]) of the same molecule?
The value was “A (greater than 1 nM)”.

And the “>90% occupancy (concentration at which >90% of BTK is occupied)” value (BTK [2])?
The value was “B (greater than 10 nM)”.

And the IC50 (JAK3)?
The IC50 was less than 0.01 µM.

What about the “concentration at which at least 50% of BTK is occupied” value (BTK [3]) of the same molecule?
Its value is “greater than 10 nM”.

And the “covalent modification of BTK by mass spectrometry” value (BTK [4])?
The value was “completely modify”.

What about the EC50 (Human naïve B cells) of the same molecule?
The EC50 was 0.001 to 0.01 µM.

What about the “concentration at which at least 50% of BTK is occupied” value (BTK [5]) of the same molecule?
The value was “greater than 10 nM”.

And the receptor occupancy at 30 mg/kg (BTK [6]; [9])?
Its receptor occupancy at 30 mg/kg is 87%.

What about the receptor occupancy at 30 mg/kg (BTK [6]; [10]) of the same molecule?
The receptor occupancy at 30 mg/kg was 60%.

How did the EC50 ([1]; DHL4 B cell lymphoma cell line, read-out: EC50 (μM) DHL4) turn out when C=CC(=O)Nc1cccc(Nc2nc(Nc3ccc(OCCOC)cc3)ncc2F)c1 [Compound I-182, N-(3-(5-fluoro-2-(4-(2-methoxyethoxy)phenylamino)pyrimidin-4-ylamino)phenyl)acrylamide] was run?
The EC50 was 1 to 10 µM.

And the EC50 [1, 7]?
The EC50 was 1 to 10 µM.

And the EC50 [1, 8]?
The EC50 was 1 to 10 µM.

And the “>50% occupancy (concentration at which >50% of BTK is occupied)” value (BTK [2])?
Its value is “A (greater than 1 nM)”.

And the “>90% occupancy (concentration at which >90% of BTK is occupied)” value (BTK [2])?
Its value is “C (greater than 50 nM)”.

And the IC50 (JAK3)?
The IC50 was less than 0.01 µM.

What about the “covalent modification of BTK by mass spectrometry” value (BTK [4]) of the same molecule?
The value was “completely modify”.

What about the EC50 (Human naïve B cells) of the same molecule?
Its EC50 is 0.001 to 0.01 µM.

What about the “concentration at which at least 50% of BTK is occupied” value (BTK [5]) of the same molecule?
The value was “greater than 10 nM”.

And the receptor occupancy at 30 mg/kg (BTK [6]; [9])?
The receptor occupancy at 30 mg/kg was 99%.

What about the receptor occupancy at 30 mg/kg (BTK [6]; [10]) of the same molecule?
Its receptor occupancy at 30 mg/kg is 79%.
